Data: publication PMC7549214 (Malaria Journal, 2020)

Columns and labels:
Plasma protein binding = assay type: in vitro ADME; conditions: mouse, read-out: Plasma protein binding (% bound)
[1] = Repeated dose 14-day toxicity study;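 further: rats dosed once daily for 14 days, test item in Tween 80 plus methylcellulose vehicle at 10 mL/kg bw, compared against vehicle-treated G1 controls by one-way ANOVA with Dunnett test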
Protocol: The animal grouping was done by the method of body weight stratification and randomization. The animals procured for the study were weighed and grouped into body weight ranges. […] Tween 80 (0.1% (v/v)) + methylcellulose (0.5% (w/v)) was used as a vehicle and the test item was dosed at a dose volume of 10 mL/kg bw. The animals were dosed once a day for a period of 14 consecutive days. The test item was administered at concentrations as mentioned in the Table for G2, G3, G4, G5 groups whereas vehicle was administered to G1 group (vehicle control) at the volume of 10 mL/kg body weight. […] On days 2 to 13, animals were dosed in the fed state. During the study, observations were made for clinical signs and mortality, body weights, gross necropsy and organ weights. The data were subjected to statistical analyses using GraphPad Prism version 5.00, GraphPad Software. One way ANOVA with Dunnets post-test were done for different treatment groups compared with the control group data.

Which fraction unbound (Plasma protein binding) does the source give for `O=C(NO)c1ccc(Cn2cc(-c3ccc(CN4CCCC4)cc3)nn2)cc1` [FNDR-20123] here?
The fraction unbound was greater than 0.7.

What about the “Toxic effects on body weights and organ weights” value ([1]; 14-day oral, 50, 100 and 150 mg/kg body weight, male and female rats) of the same molecule?
Its value is “no adverse toxic effects on body weights and organ weights”.

What about the “Adverse clinical signs or mortality” value ([1]; 14-day repeat dose oral gavage, both sexes) of the same molecule?
The value was “did not reveal any adverse clinical signs or mortality”.

What about the “Abnormality in body weight or gross organ pathology” value ([1]; 14-day, 100 mg/kg daily dose) of the same molecule?
Its value is “did not show any abnormality in body weight or gross organ pathology”.

And the Fasting body weight ([1]; female, G2 50 mg/kg)?
The Fasting body weight was 149.51 g.

What about the Body weight ([1]; female, G2 50 mg/kg bw, day 1) of the same molecule?
The Body weight was 146.45 g.

What about the Body weight ([1]; female, G2 50 mg/kg bw, day 7) of the same molecule?
The Body weight was 150.70 g.

What about the Body weight ([1]; female, G2 50 mg/kg bw, day 14) of the same molecule?
Its Body weight is 161.49 g.

And the Body weight ([1]; female, G3 100 mg/kg bw, day 1)?
Its Body weight is 146.70 g.

And the Body weight ([1]; female, G3 100 mg/kg bw, day 7)?
Its Body weight is 145.63 g.

And the Body weight ([1]; female, G3 100 mg/kg bw, day 14)?
The Body weight was 158.43 g.

And the Fasting body weight ([1]; female, G4 150 mg/kg)?
Its Fasting body weight is 134.25 g.

And the Body weight ([1]; female, G4 150 mg/kg bw, day 7)?
Its Body weight is 139.82 g.

What about the Body weight ([1]; female, G4 150 mg/kg bw, day 14) of the same molecule?
Its Body weight is 142.91 g.

What about the Fasting body weight ([1]; male, G2 50 mg/kg) of the same molecule?
Its Fasting body weight is 189.75 g.

What about the Body weight ([1]; male, G2 50 mg/kg bw, day 1) of the same molecule?
The Body weight was 166.04 g.

What about the Body weight ([1]; male, G2 50 mg/kg bw, day 7) of the same molecule?
Its Body weight is 190.40 g.

And the Body weight ([1]; male, G2 50 mg/kg bw, day 14)?
The Body weight was 209.30 g.

And the Fasting body weight ([1]; male, G3 100 mg/kg)?
Its Fasting body weight is 163.82 g.

What about the Body weight ([1]; male, G3 100 mg/kg bw, day 1) of the same molecule?
The Body weight was 166.39 g.

What about the Body weight ([1]; male, G3 100 mg/kg bw, day 7) of the same molecule?
The Body weight was 173.72 g.

What about the Body weight ([1]; male, G3 100 mg/kg bw, day 14) of the same molecule?
Its Body weight is 177.16 g.

And the Fasting body weight ([1]; male, G4 150 mg/kg)?
The Fasting body weight was 174.95 g.

What about the Body weight ([1]; male, G4 150 mg/kg bw, day 1) of the same molecule?
Its Body weight is 170.86 g.

What about the Body weight ([1]; male, G4 150 mg/kg bw, day 7) of the same molecule?
The Body weight was 180.10 g.

What about the Body weight ([1]; male, G4 150 mg/kg bw, day 14) of the same molecule?
The Body weight was 188.27 g.
